From ChEMBL document CHEMBL2074171, “Studies on intestinal absorption of sulpiride (1): carrier-mediated uptake of sulpiride in the human intestinal cell line Caco-2” (Biol Pharm Bull, 2002)
Peptide text beside a SMILES is read from it.

Tests used:
[1] = biological target: T1, Solute carrier family 15 member 1 (Homo sapiens) (UniProt P46059); experiment: TP_TRANSPORTER: inhibition of Sulpiride uptake (Surpiride: 100 uM, Gly-Sar: 1000 uM) in Caco-2 cells; assay type: functional, cell-based; set-up: scale not given: the % may be the effect or the level left
T1 sequence (whole entry): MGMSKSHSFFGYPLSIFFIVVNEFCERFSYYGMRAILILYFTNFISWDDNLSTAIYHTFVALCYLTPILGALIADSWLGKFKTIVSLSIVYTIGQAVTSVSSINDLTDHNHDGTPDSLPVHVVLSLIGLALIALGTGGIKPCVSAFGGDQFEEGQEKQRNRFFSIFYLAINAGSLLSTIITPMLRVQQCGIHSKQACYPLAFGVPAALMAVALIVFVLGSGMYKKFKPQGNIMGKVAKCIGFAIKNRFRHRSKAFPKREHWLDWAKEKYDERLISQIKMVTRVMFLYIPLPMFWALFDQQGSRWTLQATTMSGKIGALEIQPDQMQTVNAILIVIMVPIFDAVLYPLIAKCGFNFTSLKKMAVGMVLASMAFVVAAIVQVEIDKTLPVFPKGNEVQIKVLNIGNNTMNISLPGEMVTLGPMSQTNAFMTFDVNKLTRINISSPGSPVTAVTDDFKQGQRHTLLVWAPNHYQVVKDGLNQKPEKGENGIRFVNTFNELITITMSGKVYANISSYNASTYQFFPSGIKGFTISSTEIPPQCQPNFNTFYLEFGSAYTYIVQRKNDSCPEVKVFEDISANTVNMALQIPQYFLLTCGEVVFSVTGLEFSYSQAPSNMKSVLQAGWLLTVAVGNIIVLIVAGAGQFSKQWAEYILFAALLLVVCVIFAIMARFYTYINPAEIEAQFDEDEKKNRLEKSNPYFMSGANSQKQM

[2] = biological target: T1, Solute carrier family 15 member 1 (Homo sapiens); experiment: TP_TRANSPORTER: trans-stimulation of Sulpiride uptake (Surpiride: 100 uM, Gly-Sar: 1000 uM) in Caco-2 cells; assay type: functional, cell-based

CN(CC(=O)O)C(=O)CN (HELM PEPTIDE1{G.[Sar]}$$$$V2.0)
Activity [1]: 65% | Activity [2]: 135%
